Values quoted from earlier work, collected in patent publication US20250208121A1, “MAMMALIAN PER- AND POLYFLUORINATED-ALKYL COMPOUND (PFAS) BINDING PROTEINS AND USES THEREOF” (Allonnia, LLC, priority 2023, published 2025).

Conditions: in humans; previous research

Structure (SMILES) | half-life
O=C(O)C(F)(F)C(F)(F)C(F)(F)C(F)(F)C(F)(F)C(F)(F)C(F)(F)F [PFOA, perfluorooctanoic acid] | ~3.8 years
O=S(=O)(O)C(F)(F)C(F)(F)C(F)(F)C(F)(F)C(F)(F)C(F)(F)C(F)(F)C(F)(F)F [PFOS, perfluorooctanesulfonic acid] | approximately 5.4 years
